From patent publication US20230248723A1, “PYRROLO[2,3-B]PYRAZINE COMPOUNDS AS CCCDNA INHIBITORS FOR THE TREATMENT OF HEPATITIS B VIRUS (HBV) INFECTION” (Hoffmann-La Roche Inc., priority 2017, published 2023) come the findings set out here.

Like-named read-outs stand apart in the source and are kept apart here.

In one assay the test system is HBsAg. In words: HBsAg, multiplex assay, HBV-infected PHH. Format: cell-based. To be noted: Hepatitis B virus. How it is done:
Fresh primary human hepatocytes (PXB-PHH) harvested from humanized mice (uPA/SCID mice)—herein called PHH—were obtained from PhoenixBio Co., Ltd (Japan). Cells were seeded on a collagen I-coated plate at the following cell density: 35,000 cells/well (384-well), 70,000 cells/well (96-well), or, 400,000 cells/well (24-well) in modified hepatocyte clonal growth medium (dHCGM). dHCGM is a DMEM medium containing 100 U/ml Penicillin, 100 μg/ml Streptomycin, 20 mM Hopes, 44 mM NaHCO3, 15 μg/ml L-proline, 0.25 μg/ml insulin, 50 nM Dexamethazone, 5 ng/ml EGF, 0.1 mM Asc-2P, 2% DMSO and 10% FBS (Ishida et al., 2015). Cells were cultured at 37° C. incubator in a humidified atmosphere with 5% CO2. Culture medium was replaced 24 h post-plating and every 2 days until harvest.
Following 4 day of maturation with 1 μM MB-1, HLC were incubated with HBV (purified from CHB individuals) at multiplicity of infection (MOI) 10-40 without PEG for 24 hr; virus inoculum was removed the following day. […] Compound treatment in HLC and PHH was started at day 3 post infection. Compound (in powder) was dissolved in DMSO; the final concentration of DMSO added to cells is 1%. Fresh compound was replenished every 2 day until cells were harvested at day 10 (PHH), or day 14 (HLC). Compound effect on HBV and cellular toxicity was measured by multiplex assay (HBsAg, HBeAg, albumin), branched DNA (pgRNA), or digital PCR (cccDNA) and depicted as % of inhibition compared to DMSO control. Graphs were prepared using Spotfire software.
A custom, Luminex-based multiplex assay that simultaneously measured HBeAg, albumin, and HBsAg was developed by Radix BioSolutions (Georgetown, Tex.). This is a sandwich immunoassay; each capture antibody was coupled with xMAP™ Luminex magnetic beads. The dynamic ranges of analyte detection are as follows: HBeAg (1-316 ng/ml), albumin (3.1-10,000 ng/ml), and HBsAg (0.1-100 ng/ml) with coefficient variant (CV) […]. Samples were read on FlexMAP 3D (Luminex) and analyzed by Genedata software.

The subject of another assay is liver-enriched genes. In words: HLC maturation screening (microfluidic RT-qPCR of liver-enriched genes). It counts as cell-based, human. Particulars: 96 liver-enriched genes. On the procedure: FIG. 6: Effect of MB-1 on the expression of 96 liver-enriched genes in HLC. HLC seeded on collagen I-coated 6-well plates were treated with MB-1 (1, 5, or 10 μM) in 1% DMSO, or 1% DMSO (each in triplicate) for 4 days. Cells were harvested and expression of 96 liver-enriched genes was analyzed by microfluidic RT-qPCR (Fluidigm).
HLC are seeded on collagen 1-coated 96-well plates in 100 μl medium D containing Matrigel 0.25 mg/ml. The next day (day 1), compound library was added to cells at a final concentration 4 μM in 1% DMSO. Fresh medium and compound was replenished 2 days later (day 3). At day 4, cells were harvested using Cells-to-Ct lysis kit (Ambion/Thermo Fisher), total RNAs were reverse-transcribed, and the resulting cDNA products were loaded into the microfluidic 96.96 Dynamic Array™ IFC and assayed against 32 liver-enriched genes on Biomark HD system (Fluidigm). The relative gene expression was calculated from delta Ct values using house-keeping gene (PPIA) in DMSO control as reference; delta Ct values were then converted to fold-change values. Compounds that increased liver-enriched gene expression in HLC ≥3-fold compared to DMSO control were further tested in dose-response (1, 5, 10, and 50 μM). The secondary screen was performed as above using 96-liver enriched genes. The top candidate (MB-1) was used for all experiments utilizing HLC. […]
For orientation: In qPCR the cycle at which signal appears reflects the starting amount.

With `O=C(NC(CO)CO)c1c[nH]c2ncc(C3CC3)nc12` [compound 7], the IC50 was 0.33 µM in the assay with HBsAg (240 h, read-out: HBsAg IC50 (μM) Median, PHH, patient-derived HBV GT A, MOI 40, day 10 pi); 0.34 µM in the assay on HBsAg (240 h, read-out: HBsAg IC50 (μM) Median, PHH, patient-derived HBV GT B, MOI 40, day 10 pi); 0.3 µM in the assay on HBsAg (240 h, read-out: HBsAg IC50 (μM) Median, PHH, patient-derived HBV GT C, MOI 40, day 10 pi); 0.3 µM in the assay with HBsAg (240 h, read-out: HBsAg IC50 (μM) Median, PHH, patient-derived HBV GT D, MOI 40, day 10 pi (Table 5)); 9.98 µM with HBsAg (read-out: HBsAg IC50 (μM) Median, PHH, HepG2.2.15-derived HBV GT D, MOI 40); 8.98 µM in the assay with HBsAg (read-out: HBsAg IC50 (μM) Median, PHH, HepG2.2.15-derived HBV GT D, MOI 125). The IC50 in the assay with HBsAg (read-out: HBsAg IC50 (μM) Median, PHH, patient-derived HBV (GT D)) is 0.45 µM; with HBsAg (read-out: HBsAg IC50 (μM) Median, PHH, patient-derived HBV GT D, MOI 40 (Table 6)) it was 0.44 µM; in the assay with HBsAg (read-out: HBsAg IC50 (μM) Median, PHH, patient-derived HBV GT D, MOI 125) it was 0.8 µM; with HBsAg (read-out: HBsAg IC50s, PHH, patient-derived HBV GT A-D, range stated in text for HBsAg & HBeAg) it was 0.24 to 0.45 µM.

As for `O=C(NCc1cccc(F)c1)c1cccc2[nH]c(-c3c(NC[C@@H](O)c4ccccc4)cc[nH]c3=O)nc12` [MB-1], the “concentration at which mRNA expression of liver-enriched genes is enhanced” value with liver-enriched genes amounted to 55 µM.
